# Source: PubChem BioAssay (NCI)
#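 Compound exposure: 48 hours, 5 concentrations, 96-well plates. GI50 = concentration required for 50% inhibition of growth. TGI is the concentration that stops growth completely.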
# Columns and labels:
# Test in all cases: DTP human tumour cell line panel, 48 h
# [1] = system: NCI-H522 lung
# [2] = system: NCI-H226 lung
# [3] = system: A498 renal
# [4] = system: LOX IMVI melanoma
# [5] = system: RPMI-8226 leukemia
# [6] = system: MDA-MB-231 breast
# [7] = system: SF-295 CNS
# [8] = system: HT29 colon
# [9] = system: SN12C renal
# [10] = system: RXF 393 renal
# [11] = system: NCI/ADR-RES ovarian
# [12] = system: 786-0 renal
# [13] = system: HCT-15 colon
# [14] = system: T-47D breast
# [15] = system: SW-620 colon
# [16] = system: HL-60(TB) leukemia
# [17] = system: PC-3 prostate
# [18] = system: CCRF-CEM leukemia
# [19] = system: CAKI-1 renal
# [20] = system: ACHN renal
# [21] = system: OVCAR-8 ovarian
# [22] = system: SK-MEL-2 melanoma
# [23] = system: MCF7 breast
# [24] = system: HS 578T breast
# [25] = system: HCT-116 colon
# [26] = system: OVCAR-5 ovarian
# [27] = system: KM12 colon
# [28] = system: HOP-62 NSCLC
# [29] = system: MALME-3M melanoma
# [30] = system: SK-MEL-5 melanoma
# [31] = system: DU-145 prostate
# [32] = system: UACC-257 melanoma
# [33] = system: TK-10 renal
# [34] = system: COLO 205 colon
# [35] = system: BT-549 breast
# [36] = system: IGROV1 ovarian
# [37] = system: K-562 leukemia
# [38] = system: UACC-62 melanoma
# [39] = system: SF-539 CNS
# [40] = system: HOP-92 NSCLC
# [41] = system: SK-MEL-28 melanoma
# [42] = system: SNB-19 CNS
# [43] = system: OVCAR-3 ovarian
# [44] = system: EKVX NSCLC
# [45] = system: HCC-2998 colon
# [46] = system: U251 CNS
# [47] = system: OVCAR-4 ovarian
# [48] = system: SF-268 CNS
# [49] = system: SK-OV-3 ovarian
# [50] = system: M14 melanoma
# [51] = system: MDA-MB-435
# [52] = system: A549 NSCLC
# [53] = system: NCI-H460 lung
# [54] = system: SNB-75 CNS
# [55] = system: UO-31 renal
# [56] = system: MOLT-4 leukemia
# [57] = system: NCI-H23 lung
compound,measurement,setting,value
COc1cc2c3c(n(CCCNCCNCCN)c(=O)c2cc1OC)-c1cc2c(cc1C3=O)OCO2,GI50,[1],2.85 µM
same,TGI,[1],> 24.3 µM
same,GI50,[2],4.08 µM
same,TGI,[2],21.4 µM
same,GI50,[3],19.1 µM
same,TGI,[3],39.6 µM
same,GI50,[4],2.67 µM
same,TGI,[4],18.3 µM
same,GI50,[5],1.22 µM
same,TGI,[5],3.44 µM
same,GI50,[6],0.904 µM
same,TGI,[6],6.97 µM
same,GI50,[7],0.522 µM
same,TGI,[7],11.4 µM
same,GI50,[8],1.72 µM
same,GI50,[9],2.5 µM
same,TGI,[9],64.7 µM
same,GI50,[10],5.78 µM
same,TGI,[10],> 29.3 µM
same,GI50,[11],> 100 µM
same,TGI,[11],> 100 µM
same,GI50,[12],1.91 µM
same,TGI,[12],14.7 µM
same,GI50,[13],11.9 µM
same,TGI,[13],> 100 µM
same,GI50,[14],2.99 µM
same,TGI,[14],> 100 µM
same,GI50,[15],2.13 µM
same,TGI,[15],43.8 µM
same,GI50,[16],1.14 µM
same,TGI,[16],15.6 µM
same,GI50,[17],5.62 µM
same,TGI,[17],> 55.5 µM
same,GI50,[18],0.0835 µM
same,TGI,[18],1.58 µM
same,GI50,[19],3.38 µM
same,TGI,[19],22.9 µM
same,GI50,[20],3.3 µM
same,TGI,[20],> 53.2 µM
same,GI50,[21],1.46 µM
same,TGI,[21],11.2 µM
same,GI50,[22],6.94 µM
same,TGI,[22],17.4 µM
same,GI50,[23],0.434 µM
same,GI50,[24],3.07 µM
same,TGI,[24],15.7 µM
same,GI50,[25],0.831 µM
same,TGI,[25],2.19 µM
same,GI50,[26],3.61 µM
same,TGI,[26],> 25.2 µM
same,GI50,[27],3.41 µM
same,TGI,[27],17.8 µM
same,GI50,[28],2.8 µM
same,TGI,[28],20.5 µM
same,GI50,[29],0.699 µM
same,TGI,[29],5.75 µM
same,GI50,[30],1.99 µM
same,TGI,[30],9.5 µM
same,GI50,[31],1.14 µM
same,TGI,[31],5.82 µM
same,GI50,[32],15.2 µM
same,TGI,[32],35.9 µM
same,GI50,[33],3.23 µM
same,TGI,[33],22.4 µM
same,GI50,[34],2.58 µM
same,TGI,[34],> 100 µM
same,GI50,[35],3.09 µM
same,TGI,[35],15 µM
same,GI50,[36],5.21 µM
same,TGI,[36],> 100 µM
same,GI50,[37],1.18 µM
same,TGI,[37],15.9 µM
same,GI50,[38],2.34 µM
same,TGI,[38],12.8 µM
same,GI50,[39],0.551 µM
same,TGI,[39],3.21 µM
same,GI50,[40],4.85 µM
same,TGI,[40],37.7 µM
same,GI50,[41],4.65 µM
same,TGI,[41],> 39.1 µM
same,GI50,[42],2.12 µM
same,TGI,[42],> 100 µM
same,GI50,[43],1.48 µM
same,TGI,[43],6.01 µM
same,GI50,[44],1.68 µM
same,TGI,[44],8.1 µM
same,GI50,[45],3.2 µM
same,TGI,[45],23.8 µM
same,GI50,[46],1.85 µM
same,TGI,[46],> 100 µM
same,GI50,[47],5.09 µM
same,TGI,[47],> 31 µM
same,GI50,[48],1.72 µM
same,TGI,[48],21.7 µM
same,GI50,[49],12.1 µM
same,TGI,[49],> 100 µM
same,GI50,[50],3.35 µM
same,TGI,[50],14.7 µM
same,GI50,[51],2.67 µM
same,TGI,[51],10.6 µM
same,GI50,[52],3.55 µM
same,TGI,[52],62.2 µM
same,GI50,[53],2.08 µM
same,TGI,[53],> 42.6 µM
same,GI50,[54],0.277 µM
same,TGI,[54],9.47 µM
same,GI50,[55],47.8 µM
same,TGI,[55],> 100 µM
same,GI50,[56],0.186 µM
same,TGI,[56],1.8 µM
same,GI50,[57],1.92 µM
same,TGI,[57],8.95 µM
